Results on twelve compounds are retold here after publication PMC5151175 (Journal of medicinal chemistry, 2016).

“Also recorded” adds a separate entry of the source.

One data set concerns HIV-1 integrase. The conditions noted are these: cited from earlier work.
The next data set relates to HIV in MT-4 cells. The note with it: cited from earlier work; for IC50: read-out: IC50, anti-HIV activity in MT-4 cells.
The subject of data set [1] is HIV replication in MT-2 cell. The conditions noted are these: read-out: IC50, HIV replication in MT-2 cells; cited from earlier work.
For data set [2], the system named is NL4-3 Env-mediated cell–cell fusion. In words: fusion assay. It is filed as cell-based, HIV-1. The note with it: average of two independent tests.
The test system of data set [3] is NL4-3 infection of TZM-bl cells. In words: TZM-bl assay. The note with it: at 2 µM; average of two tests. It is filed as cell-based, HIV-1.
The next data set concerns HIV-1/NL4-3. It is filed as cell-based. The note with it: for IC50 NL4-3: wild-type HIV-1/NL4-3 replication, mean ± SD of three separate experiments, NS = no selective anti-HIV activity (CC50/IC50 < 5).
The next data set relates to NL4-3/V370A. Format: cell-based, HIV-1. The note with it: IC50(NL4-3/V370A)/IC50(NL4-3) ratio.
A short description of the next data set: in vitro metabolic. It is filed as in vitro ADME. The conditions noted are these: human, microsomes.
For data set [4] the following is noted: human, in vivo; cited from earlier work.

Take `O=C(/C=C/c1ccc(O)c(O)c1)O[C@@H]1C[C@](O)(C(=O)O)C[C@@H](OC(=O)/C=C/c2ccc(O)c(O)c2)[C@H]1O` [compound 8, 3,5-Dicaffeoylquinic acid]: the “HIV-1 integrase inhibitory activity” value in the data set with HIV-1 integrase is given as “active against HIV-1 integrase”.

As to `O=C(/C=C/c1cc(O)c(O)cc1[N+](=O)[O-])O[C@H](Cc1cc(O)c(O)cc1[N+](=O)[O-])C(=O)O` [compound 6, 6′,6″-Dinitrorosmarinic acid], the “anti-HIV activity in MT-4 cells” value in the data set on HIV in MT-4 cells is on record as “moderate anti-HIV activity”. In addition, the HIV-1 integrase inhibition result in the data set on HIV-1 integrase was “potent HIV-1 integrase inhibition”. As a reminder, the IC50 is the concentration at which inhibition is half-maximal. On to (−)-erythro-7′-methylcarolignan E [11b], for which the concentration for half-maximal inhibition (IC50) in the data set on HIV in MT-4 cells is 5.3 µM. On to L-Chicoric acid [compound 9], for which the concentration for half-maximal inhibition (IC50) in data set [1] is 4.2 µM. Regarding `C=C(C)[C@@H]1CC[C@]2(C(=O)NCCCCCCCNC(C)=O)CC[C@]3(C)[C@H](CC[C@@H]4[C@@]5(C)CC[C@H](O)C(C)(C)[C@@H]5CC[C@]43C)[C@@H]12` [A43D], the “inhibition of NL4-3 Env-mediated cell–cell fusion” value in data set [2] is given as “strongly inhibited”. Besides, the “inhibition of NL4-3 infection of TZM-bl cells” value (“inhibition … of TZM-bl cells” below) in data set [3] is reported as “totally inhibited”. As for `O=C(/C=C/c1ccc(O)c2c1[C@H](C(=O)O)[C@@H](c1ccc(O)c(O)c1)O2)O[C@H](Cc1ccc(O)c(O)c1)C(=O)O` [compound 7, (+)-Lithospermic acid], the “HIV-1 integrase inhibitory activity” value in the data set on HIV-1 integrase is given as “submicromolar range”. As for `C=C(C)[C@@H]1CC[C@]2(C(=O)N3CCNCC3)CC[C@]3(C)[C@H](CC[C@@H]4[C@@]5(C)CC[C@H](OC(=O)CC(C)(C)C(=O)O)C(C)(C)[C@@H]5CC[C@]43C)[C@@H]12` [compound 20], the “fold less active than 2 against NL4-3” value in the data set with HIV-1/NL4-3 (compared with 2) came to 8 fold. Regarding `O=C(/C=C/c1ccc2c(c1)OCO2)N1CCNCC1` [14c], the “IC50 NL4-3” value in the data set on HIV-1/NL4-3 is “inactive”. Usually microsomal CLint stands for the rate of metabolic loss divided by the concentration. A low value points to greater metabolic stability. As to `C=C(C)[C@@H]1CC[C@]2(C(=O)N3CCN(C(=O)/C=C/c4ccc5c(c4)OCO5)CC3)CC[C@]3(C)[C@H](CC[C@@H]4[C@@]5(C)CC[C@H](OC(=O)CC(C)(C)C(=O)O)C(C)(C)[C@@H]5CC[C@]43C)[C@@H]12` [18c], in the data set with NL4-3/V370A, the “RFC (resistance fold change)” value is 7.89. Further, the “inhibition of NL4-3 Env-mediated cell–cell fusion” value in [2] was “no activity; also recorded: did not inhibit”. Also, the “inhibition … of TZM-bl cells” value in data set [3] was “no inhibition; also recorded: no activity”. Moreover, the intrinsic metabolic clearance (microsomal CLint) in the data set “in vitro metabolic” was 54 µL/min/mg. For the compound `C=C(C)[C@@H]1CC[C@]2(C(=O)O)CC[C@]3(C)[C@H](CC[C@@H]4[C@@]5(C)CC[C@H](OC(=O)CC(C)(C)C(=O)O)C(C)(C)[C@@H]5CC[C@]43C)[C@@H]12` [compound 2, 3-O-(3′,3′-dimethylsuccinyl)-betulinic acid], the “inhibition of NL4-3 Env-mediated cell–cell fusion” value in [2] was “no activity”. Also, the “inhibition … of TZM-bl cells” value in data set [3] was “no inhibition”. Also, the “elimination half-life t1/2” value in data set [4] is 56.3 to 69.5 h. Turning to (+)-erythro-7′-methylcarolignan E [11a], in the data set on HIV in MT-4 cells, the IC50 was 6.3 µM. On to `O=C(O)/C=C/c1ccc(O)c(O)c1` [compound 5, 3,4-dihydroxycinnamic acid], for which the “IC50 NL4-3” value in the data set on HIV-1/NL4-3 is “no selectivity”.
